Consider eleven compounds from ChEMBL document CHEMBL1201862, “PubChem BioAssay data set” (2004).

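Compound exposure: 48 hours, 5 concentrations, 96-well plates. The concentration for 50% growth inhibition is given as GI50.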 Active and inactive are the calls of the source. Rule as the data show it: active = GI50 up to about 1.1 µM and inactive = higher. Non-standard residues stand in square brackets, D forms with d. Residues, ends and D or L forms follow the SMILES beside them. ξ: configuration not given here. Pentanoyl(2-O,4-OH,5-Cl) = O=C(O)C(O)CC(O)CCl; Ile(3ξ) = CCC(C)[C@H](N)C(=O)O; NMeV = CN[C@H](C(=O)O)C(C)C; NMeA = CN[C@@H](C)C(=O)O; βAla = NCCC(=O)O

Common to all, as to assay: NCI tumour cell line growth inhibition, 48 h
Assay [1] relates to UO-31.
The subject of assay [2] is NCI-H226.
Assay [3] deals with SN12C.
For assay [4], the system named is SF-268.
The test system of assay [5] is Malme-3M.
For assay [6], the system named is NCI-H460.
For assay [7], the system named is SK-MEL-5.
In assay [8] the test system is SK-MEL-2.
Assay [9] concerns HCT-116.
Assay [10] has as its system MOLT-4.
For assay [11], the system named is SK-MEL-28.
The subject of assay [12] is OVCAR-3.
Assay [13] has as its system HCT-15.
The test system of assay [14] is A498.
Assay [15] relates to NCI-H23.
Assay [16] has as its system RPMI-8226.
The test system of assay [17] is OVCAR-5.
The test system of assay [18] is TK-10.
For assay [19], the system named is M14.
Assay [20] deals with ACHN.

With `Cc1ccc(C#CS(=O)(=O)C(F)(F)F)cc1`, the GI50 in assay [1] is > 100 µM (inactive); in [2], > 89.7 µM (inactive); in assay [3], > 100 µM (inactive); in assay [4], > 100 µM (inactive); in assay [5], > 100 µM (inactive); in assay [6] it was > 100 µM (inactive). Besides, the GI50 in [7], in [8], in [9], in assay [10], in assay [11] and in assay [12] was > 100 µM (inactive) throughout. Also, the GI50 in [13] was above 100 µM; in assay [14], > 100 µM (inactive); in [15], > 100 µM (inactive); in assay [16], > 100 µM (inactive); in assay [17], > 100 µM (inactive).

On to `Cc1ccc(NC(=O)/C(=N/N(C)C)C(C2OC(=O)c3ccccc32)[N+](=O)[O-])cc1` (centres undefined), for which the GI50 in assay [1], in assay [2], in [3], in assay [4], in [6] and in assay [7] was > 100 µM (inactive) throughout. Besides, the GI50 in assay [18], in assay [8], in assay [19], in assay [9], in [10] and in assay [11] was > 100 µM (inactive) in each case. For the same compound, the GI50 in [12] is > 100 µM (inactive); in [13], above 100 µM; in assay [14], > 100 µM (inactive); in assay [15], > 100 µM (inactive); in [20], > 100 µM (inactive); in [16], > 100 µM (inactive). The GI50 in assay [17] is > 100 µM (inactive).

As to `CSc1nc(NC2OC(COC(C)=O)C(OC(C)=O)C(OC(C)=O)C2OC(C)=O)c2c(OC(C)=O)c(C)c(=O)oc2n1` (centres undefined), the GI50 in assay [1], in [2], in [3], in [5], in assay [6] and in [7] was > 100 µM (inactive) throughout. The GI50 in assay [18], in assay [8], in assay [19], in assay [9], in assay [10] and in assay [12] was > 100 µM (inactive) each time. Also, the GI50 in assay [13] was above 100 µM; in [14], > 100 µM (inactive); in assay [15] it was > 100 µM (inactive); in assay [20], > 100 µM (inactive); in assay [16], > 100 µM (inactive); in assay [17], > 100 µM (inactive).

On to `COc1ccc2[nH]c3c(C)c4ccncc4c(C)c3c2c1`, for which the GI50 in [1] is 1.42 µM (inactive); in assay [2] it was 1.13 µM (inactive); in [3], 0.177 µM (active); in [4], 0.429 µM (active); in [5], 1.44 µM (inactive); in assay [6], 0.0292 µM (active). Besides, the GI50 in assay [7] was 1.26 µM (inactive); in assay [8], 1.86 µM (inactive); in assay [9], 0.0425 µM (active); in assay [10], 0.0635 µM (active); in [11], 2.09 µM (inactive); in [12], 0.402 µM (active). Moreover, the GI50 is 0.22 µM in assay [13]; 0.504 µM (active) in [14]; 0.34 µM (active) in assay [15]; 0.289 µM (active) in assay [16]; 1.42 µM (inactive) in assay [17].

Regarding `COC1C(O)C(n2ncc3c(SC)nc(SC)nc32)OC1C(O)CO` (centres undefined), the GI50 in assay [1], in assay [2], in assay [3], in [4], in assay [5] and in [6] was > 100 µM (inactive) each time. Besides, the GI50 in [7], in assay [8], in assay [9], in assay [10], in [11] and in assay [12] was > 100 µM (inactive) in each case. Moreover, the GI50 was above 100 µM in [13]; > 100 µM (inactive) in assay [14]; > 100 µM (inactive) in assay [15]; > 100 µM (inactive) in assay [16]; > 100 µM (inactive) in assay [17].

For `Nc1ccc(N(S(=O)(=O)c2ccccc2)S(=O)(=O)c2ccccc2)c(Cl)c1`, the GI50 in assay [1] was > 100 µM (inactive); in assay [2], 73.5 µM (inactive); in assay [3], 75.9 µM (inactive); in assay [4], 69.2 µM (inactive); in assay [5], 42.5 µM (inactive); in [6], 34.8 µM (inactive). The GI50 was 20.1 µM (inactive) in assay [7]; 55.1 µM (inactive) in [18]; 31.3 µM (inactive) in assay [8]; 77.6 µM (inactive) in assay [19]; 55.2 µM (inactive) in [9]; 14.2 µM (inactive) in assay [10]. For the same compound, the GI50 in [11] is 68.9 µM (inactive); in [13] it was 55.7 µM; in assay [14], 25.2 µM (inactive); in [15], 55.8 µM (inactive); in assay [20], 66.5 µM (inactive); in [16], 28.7 µM (inactive). In [17], the GI50 was > 100 µM (inactive).

As for `c1ccc2c(c1)NCc1cc3ccccc3nc1O2`, the GI50 in assay [1] was 26.9 µM (inactive); in assay [2], > 40.7 µM (inactive); in [3] it was > 100 µM (inactive); in assay [4], > 100 µM (inactive); in assay [5], > 100 µM (inactive); in assay [6], > 100 µM (inactive). In addition, the GI50 in assay [7] was > 100 µM (inactive); in assay [8], > 100 µM (inactive); in [9], > 100 µM (inactive); in [10], 83 µM (inactive); in assay [11], > 100 µM (inactive); in assay [12] it was > 100 µM (inactive). Also, the GI50 was above 100 µM in assay [13]; > 75.5 µM (inactive) in [14]; > 100 µM (inactive) in [15]; > 100 µM (inactive) in assay [16]; > 100 µM (inactive) in [17].

For `CCC(C)[C@@H]1NC(=O)[C@@H]2CCCN2C(=O)C(CC(O)CCl)OC(=O)CCNC(=O)[C@H](C)N(C)C(=O)[C@H](C(C)C)N(C)C1=O` (some centres undefined) (cyclo([Ile(3ξ)][NMeV][NMeA][βAla][Pentanoyl(2-O,4-OH,5-Cl)]P)), the GI50 in assay [1] is > 93.3 µM (inactive); in assay [2], > 100 µM (inactive); in assay [3] it was > 100 µM (inactive); in [4], > 100 µM (inactive); in assay [5], 12.3 µM (inactive); in [6], > 31.4 µM (inactive). Further, the GI50 in assay [7] is 0.248 µM (active); in assay [18] it was > 100 µM (inactive); in assay [8] it was 0.347 µM (active); in assay [19], 0.46 µM (active); in assay [9], 13.9 µM (inactive); in assay [12] it was 17.9 µM (inactive). For the same compound, the GI50 in [13] was above 80.2 µM; in [14], > 29.1 µM (inactive); in [15], > 100 µM (inactive); in assay [20], > 100 µM (inactive); in assay [16], 0.247 µM (active); in assay [17], > 100 µM (inactive).

Regarding `Cc1ccc(S(=O)(=O)N(C=O)N=C2CCN(Cc3ccccc3)CC2)cc1`, the GI50 in [1], in assay [2], in [3], in assay [5], in assay [6] and in assay [7] was > 100 µM (inactive) each time. The GI50 in assay [18], in [8], in assay [19], in assay [9], in [10] and in [12] was > 100 µM (inactive) throughout. Besides, the GI50 in assay [13] was above 100 µM; in assay [14], > 100 µM (inactive); in assay [15] it was > 100 µM (inactive); in assay [20], > 100 µM (inactive); in assay [16], > 100 µM (inactive); in assay [17], > 100 µM (inactive).

With `C[C@]12CC/C(=N\O)C=C1CC[C@@H]1[C@@H]2CC[C@]2(C)C(=N/O)/C(=C/c3cccnc3)C[C@@H]12`, the GI50 was 4.9 µM (inactive) in assay [1]; 3.63 µM (inactive) in assay [2]; 12.2 µM (inactive) in assay [3]; 17.8 µM (inactive) in assay [5]; 3.46 µM (inactive) in [6]; 15.1 µM (inactive) in assay [18]. Moreover, the GI50 in assay [8] was 19.8 µM (inactive); in assay [19], 16.5 µM (inactive); in assay [9] it was 17.5 µM (inactive); in assay [10], 0.546 µM (active); in assay [11] it was 16.9 µM (inactive); in assay [13] it was 5.9 µM. Also, the GI50 in assay [14] is 14.5 µM (inactive); in assay [15], 32.6 µM (inactive); in assay [20] it was 16.8 µM (inactive); in assay [16], 1.74 µM (inactive); in assay [17], 24.2 µM (inactive).

`CCOC(=O)c1c[nH]c2cc3c(cc2c1=O)CCS3(=O)=O.CCOC(=O)c1c[nH]c2ccc3c(c2c1=O)S(=O)(=O)CC3`: the GI50 in assay [1] was > 100 µM (inactive); in [2], 62.4 µM (inactive); in [3], > 100 µM (inactive); in [4] it was > 100 µM (inactive); in assay [5], > 100 µM (inactive); in assay [6], > 100 µM (inactive). Besides, the GI50 in assay [7], in assay [8], in assay [9], in assay [10], in assay [11] and in [12] was > 100 µM (inactive) each time. Moreover, the GI50 in assay [13] was above 100 µM; in assay [14], > 100 µM (inactive); in assay [15], > 100 µM (inactive); in [16], > 100 µM (inactive); in [17], > 100 µM (inactive).
